Data reported in patent publication US20260356804A1, “SODIUM CHANNEL BLOCKING COMPOUNDS, DERIVATIVES THEREOF, AND METHODS OF THEIR USE” (LATIGO BIOTHERAPEUTICS, INC., priority 2022, published 2026).
Like-named read-outs stand apart in the source and are kept apart here.

Columns and labels:
[1] = biological target: T1, human Nav1.8/β1 (Homo sapiens, UniProt Q9Y5Y9); experiment: Compound Profiling Human NaV1.8/β1 Cell Line—Sophion QPatch II Assay (automated patch clamp, stably transfected HEK293 cells); type: cell-based
T1 construct: host or cells: HEK293
Experimental: Compounds were tested on recombinant human Nav1.8/β1 stably transfected HEK293 (Eurofins, CYL3025, St. Charles, MO) cells using the QPatch II system (Sophion Bioscience A/S, Ballerup—Denmark), an automated patch clamp device. Cells were cultured at 37° C./5% CO2 in DMEM/F-12 supplemented with 10% fetal bovine serum, 1× Non-Essential Amino Acids, and selection antibiotics (0.625 μg/mL Puromycin, 400 μg/mL Geneticin, and 100 μg/mL Hygromycin). One or two days prior to recording, cells were moved to a lower temperature 30° C./5% CO2 incubator to increase surface expression of the channels. On the day of the recordings, cells in culture dishes were washed twice with Ca^2+—Mg^2+ free DPBS and treated with Detachin (Genlantis, San Diego) for 3 minutes and then resuspended in Serum Free Medium (EX-CELL® ACF CHO Medium for Cell Culture (Sigma-Aldrich) supplemented with 0.04 mg/mL soybean trypsin Inhibitor and 25 mM HEPES (all components supplied by Sigma-Aldrich, St. Louis, MO) and allowed to recover for a minimum of 20 minutes in the onboard QStirrer. All experiments were performed at ambient temperature. Intracellular solution contained (mM): CsCl, 50; CsF, 90; MgCl2, 2; EGTA, 5; HEPES, 10; pH adjusted to 7.2 with CsOH. Extracellular solution contained (mM): NaCl, 137; KCl, 4; CaCl2), 3.8; MgCl2, 1; HEPES, 10; Glucose, 10; pH adjusted to 7.4 with NaOH. [LEFT OUT].
Compounds were tested in an interleaved manner across two cohorts of wells to develop an aggregate 8-point concentration response curve. Final concentrations include 0.1% DMSO and 0.03% pluronic Acid. In general, the concentration range spans a range from 0.01-300 nM. Compounds were diluted 1:10 with extracellular solution within their respective cohort. DMSO (0.1% by volume) served as a vehicle control to ascertain assay performance.
(§1) Whole cell patch clamp recordings were conducted according to Sophion standard procedure for QPatch II®. Cells were held at a holding potential of −120 mV. A depolarizing step to 10 mV for 30 ms was applied to elicit inward Na^+ currents. Inter-sweep interval was 15 sec. Following establishment of the whole-cell configuration in extracellular solution, cells were washed twice in extracellular solution containing 0.1% DMSO and 0.03% pluronic acid to stabilize the baseline current. Compounds were then applied by the QPatch II system into each well in an ascending manner within cohort and the current was recorded for five minutes for each concentration. Percent of current remaining was determined by taking the average of the last 5 sweeps within each concentration and normalizing to the latest pre-compound saline period. The potency (IC50) values of the compounds were only assessed against resting state block. Wells whose initial sodium current magnitude were below 2 nA or whole cell resistance fell below 100 MΩ were excluded from analysis.
as §1, with “MO” for “MΩ”, “analysis. […]” for “analysis.”

[2] = biological target: T2, human Nav1.8/b3 (Homo sapiens, UniProt Q9Y5Y9); experiment: Compound Profiling Human NaV1.8/β3 Cell Line—SyncroPatch384PE Assay (automated patch clamp, stably transfected CHO cells); type: cell-based; conditions: Nav1.8/b3 CHO cells, third set of compounds
T2 construct: expressed in transfected cells; host or cells: CHO

[3] = P1, resting state block, Nav1.8/β1 HEK293 cells, holding potential −120 mV, third set of compounds, read-out: P1 (IC50, resting state block)
[4] = P1 (IC50, resting state block), P1 measurement, resting state block, holding potential −120 mV
[5] = P2 (IC50, inactivated state block), P2 measurement, inactivated state block, inactivation step −35 mV 10 sec

T1 sequence (Q9Y5Y9 whole entry): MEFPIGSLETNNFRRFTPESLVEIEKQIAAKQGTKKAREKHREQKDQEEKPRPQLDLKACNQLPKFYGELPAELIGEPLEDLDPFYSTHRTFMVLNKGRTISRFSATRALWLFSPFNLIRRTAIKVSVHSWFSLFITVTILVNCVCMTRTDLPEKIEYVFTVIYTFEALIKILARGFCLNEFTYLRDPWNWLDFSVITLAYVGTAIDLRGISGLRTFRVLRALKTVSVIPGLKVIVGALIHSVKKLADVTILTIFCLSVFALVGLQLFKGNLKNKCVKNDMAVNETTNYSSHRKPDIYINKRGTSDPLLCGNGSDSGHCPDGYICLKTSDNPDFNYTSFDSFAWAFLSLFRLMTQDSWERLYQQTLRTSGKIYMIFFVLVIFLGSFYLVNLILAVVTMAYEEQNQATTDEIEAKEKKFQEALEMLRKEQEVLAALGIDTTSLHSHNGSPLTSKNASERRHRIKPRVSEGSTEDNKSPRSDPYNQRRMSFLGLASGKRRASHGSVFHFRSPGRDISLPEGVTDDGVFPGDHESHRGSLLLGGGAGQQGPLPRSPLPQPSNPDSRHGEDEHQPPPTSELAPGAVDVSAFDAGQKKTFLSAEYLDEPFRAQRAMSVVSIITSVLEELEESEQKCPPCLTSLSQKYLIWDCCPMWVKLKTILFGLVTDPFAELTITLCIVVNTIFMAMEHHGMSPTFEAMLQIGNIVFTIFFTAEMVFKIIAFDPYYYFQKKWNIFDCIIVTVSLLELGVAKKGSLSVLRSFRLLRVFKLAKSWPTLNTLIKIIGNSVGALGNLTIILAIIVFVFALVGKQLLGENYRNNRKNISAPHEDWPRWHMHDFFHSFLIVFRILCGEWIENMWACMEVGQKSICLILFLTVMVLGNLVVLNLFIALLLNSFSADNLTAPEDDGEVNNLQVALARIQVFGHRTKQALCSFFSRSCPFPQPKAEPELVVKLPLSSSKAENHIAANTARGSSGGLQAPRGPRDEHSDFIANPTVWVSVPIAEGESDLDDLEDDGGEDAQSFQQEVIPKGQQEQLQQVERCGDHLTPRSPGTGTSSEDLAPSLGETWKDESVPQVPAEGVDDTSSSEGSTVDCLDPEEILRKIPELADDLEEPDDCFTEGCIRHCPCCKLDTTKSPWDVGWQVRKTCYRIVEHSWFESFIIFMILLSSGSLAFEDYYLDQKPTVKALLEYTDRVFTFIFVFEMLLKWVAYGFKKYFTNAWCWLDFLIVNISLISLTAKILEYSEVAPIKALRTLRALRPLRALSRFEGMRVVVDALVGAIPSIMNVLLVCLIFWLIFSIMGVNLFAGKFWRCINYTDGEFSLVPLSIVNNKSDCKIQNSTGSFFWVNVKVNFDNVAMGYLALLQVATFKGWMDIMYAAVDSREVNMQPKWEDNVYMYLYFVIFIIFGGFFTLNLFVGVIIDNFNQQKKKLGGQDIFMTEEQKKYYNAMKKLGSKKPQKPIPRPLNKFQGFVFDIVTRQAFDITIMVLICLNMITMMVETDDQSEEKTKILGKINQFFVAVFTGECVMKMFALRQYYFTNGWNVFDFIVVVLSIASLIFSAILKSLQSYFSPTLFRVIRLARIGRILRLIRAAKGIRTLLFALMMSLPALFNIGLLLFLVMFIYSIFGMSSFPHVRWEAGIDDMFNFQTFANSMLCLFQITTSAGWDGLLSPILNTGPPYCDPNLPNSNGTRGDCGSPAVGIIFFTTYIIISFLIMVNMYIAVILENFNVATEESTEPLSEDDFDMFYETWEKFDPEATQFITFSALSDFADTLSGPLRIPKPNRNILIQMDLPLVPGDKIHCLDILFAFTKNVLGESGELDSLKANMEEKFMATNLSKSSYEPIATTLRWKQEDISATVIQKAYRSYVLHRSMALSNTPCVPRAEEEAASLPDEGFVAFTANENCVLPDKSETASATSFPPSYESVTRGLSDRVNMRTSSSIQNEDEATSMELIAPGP
T1 sequence (Q07699 19-218 partner): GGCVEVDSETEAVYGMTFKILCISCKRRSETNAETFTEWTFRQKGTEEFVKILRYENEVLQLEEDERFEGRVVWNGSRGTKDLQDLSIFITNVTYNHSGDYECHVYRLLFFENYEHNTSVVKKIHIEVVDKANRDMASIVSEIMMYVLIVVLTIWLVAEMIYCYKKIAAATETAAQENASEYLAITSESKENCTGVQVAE
T2 sequence (Q9Y5Y9 whole entry): as the sequence (Q9Y5Y9 whole entry) above
T2 sequence (Q9NY72 23-215 partner): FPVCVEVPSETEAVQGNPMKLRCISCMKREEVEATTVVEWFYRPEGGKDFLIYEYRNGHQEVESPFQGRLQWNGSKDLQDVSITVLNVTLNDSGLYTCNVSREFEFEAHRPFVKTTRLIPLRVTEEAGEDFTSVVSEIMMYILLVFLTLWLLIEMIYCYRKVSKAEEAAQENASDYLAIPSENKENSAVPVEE

SMILES | IC50 [1] [nM] | also measured
Cc1nc(F)ccc1Oc1ncc(C(F)(F)F)c(C)c1C(=O)Nc1cncc([S@](C)(=N)=O)c1 [Example 61C] | 100 to 200 | 
Cc1nc(F)ccc1Oc1ncc(C(F)(F)F)c(C)c1C(=O)Nc1cncc([S@@](C)(=N)=O)c1 [Example 62C] | > 200 | 
Cc1nc(F)ccc1Oc1ncc(C(F)(F)F)c(C)c1C(=O)Nc1cc(S(C)(=N)=O)ccn1 (centres unmarked) [Example 63C] | > 200 | 
CNCC[S@@](=N)(=O)c1cccc(NC(=O)c2c(Oc3ccc(F)nc3C)ncc(C(F)(F)F)c2C)c1 [Example 64C] |  | IC50 [1, 3]: 5 to 50 nM
CNCC[S@](=N)(=O)c1cccc(NC(=O)c2c(Oc3ccc(F)nc3C)ncc(C(F)(F)F)c2C)c1 [Example 65C] | 5 to 50 | 
Cc1nc(F)ccc1Oc1ncc(C(F)(F)F)c(C)c1C(=O)Nc1cccc([S@@](=N)(=O)CCO)c1 [Example 66C] | 50 to 100 | 
Cc1nc(F)ccc1Oc1ncc(C(F)(F)F)c(C)c1C(=O)Nc1cccc([S@](=N)(=O)CCO)c1 [Example 67C] | 5 to 50 | 
Cc1nc(F)ccc1Oc1ncc(C(F)(F)F)c(C)c1C(=O)Nc1cccc([S@@](=N)(=O)CCCO)c1 [Example 68C] | 100 to 200 | 
Cc1nc(F)ccc1Oc1ncc(C(F)(F)F)c(C)c1C(=O)Nc1cccc([S@](=N)(=O)CCCO)c1 [Example 69C] | 100 to 200 | 
Cc1nc(F)ccc1Oc1ncc(C(F)(F)F)c(C)c1C(=O)Nc1cccc(S(=O)(=O)CCCO)c1 [Example 70C] | 100 to 200 | 
CNCCCS(=O)(=O)c1cccc(NC(=O)c2c(Oc3ccc(F)nc3C)ncc(C(F)(F)F)c2C)c1 [Example 71C] | 5 to 50 | 
Cc1nc(F)ccc1Oc1ncc(C(F)(F)F)c(C)c1C(=O)Nc1cccc([S@@](=N)(=O)CCCN(C)C)c1 [Example 72C] | 5 to 50 | 
Cc1nc(F)ccc1Oc1ncc(C(F)(F)F)c(C)c1C(=O)Nc1cccc([S@](=N)(=O)CCCN(C)C)c1 [Example 73C] | 5 to 50 | 
CNCCCS(=N)(=O)c1cccc(NC(=O)c2c(Oc3ccc(F)nc3C)ncc(C(F)(F)F)c2C)c1 (centres unmarked) [Example 74C] | 5 to 50 | 
Cc1nc(F)ccc1Oc1ncc(C(F)(F)F)c(C)c1C(=O)Nc1cccc([S@@](=N)(=O)CCN(C)C)c1 [Example 75C] | 5 to 50 | 
Cc1nc(F)ccc1Oc1ncc(C(F)(F)F)c(C)c1C(=O)Nc1cccc([S@](=N)(=O)CCN(C)C)c1 [Example 76C] | 5 to 50 | 
Cc1nc(F)ccc1Oc1cc(C(F)(F)F)c(Cl)cc1C(=O)Nc1ccnc([S@@](C)(=N)=O)c1 [Example 77C] |  | IC50 [1, 3]: > 200 nM
CNCCS(=N)(=O)c1cccc(NC(=O)c2c(Oc3ccc(F)nc3C)ncc(C(F)(F)F)c2C)c1 (centres unmarked) [Example 78C] | 5 to 50 | 
Cc1nc(F)ccc1Oc1ncc(C(F)(F)F)c(C)c1C(=O)Nc1cccc([S@]2(=O)=NCCC2)c1 [Example 79C] | 5 to 50 | 
Cc1nc(F)ccc1Oc1ncc(C(F)(F)F)c(C)c1C(=O)Nc1cccc([S@@]2(=O)=NCCC2)c1 [Example 80C] | 100 to 200 | 
Cc1nc(F)ccc1Oc1nc(C(F)(F)F)c(Cl)cc1C(=O)Nc1ccnc([S@](C)(=N)=O)c1 [Example 81C] | > 200 | 
CC[S@@](=N)(=O)c1cccc(NC(=O)c2c(Oc3ccc(F)nc3C)ncc(C(F)(F)F)c2C)c1 [Example 82C] | 50 to 100 | 
Cc1c(C(F)(F)F)cnc(Oc2ccc(F)nc2CO)c1C(=O)Nc1cccc([S@@](C)(=N)=O)c1 [Example 83C] | > 200 | 
Cc1nc(F)ccc1Oc1ncc(C(F)(F)F)c(C)c1C(=O)N[C@H]1C[C@H](C(N)=O)C1 [Example 84C] | > 200 | 
Cc1nc(F)ccc1Oc1ncc(C(F)(F)F)c(C)c1C(=O)N[C@H]1C[C@@H](C(N)=O)C1 [Example 85C] | > 200 | 
Cc1nc(F)ccc1Oc1ncc(C2CCCC2)c(C)c1C(=O)Nc1ccnc([S@](C)(=N)=O)c1 [Example 86C] | 5 to 50 | IC50 [2, 4]: 5 to 50 nM; IC50 [2, 5]: 5 to 50 nM
Cc1nc(F)ccc1Oc1ncc(C2CCCC2)c(C)c1C(=O)Nc1cccc([S@](C)(=N)=O)c1 [Example 87C] | 5 to 50 | IC50 [2, 4]: 5 to 50 nM; IC50 [2, 5]: 5 to 50 nM
Cc1nc(F)ccc1Oc1ncc(C(F)(F)F)c(C)c1C(=O)Nc1ccc(F)c(S(C)(=O)=NCCN)c1 (centres unmarked) [Example 88C] | 5 to 50 | IC50 [2, 4]: < 5 nM; IC50 [2, 5]: < 5 nM
Cc1c(C(F)(F)F)cnc(Oc2ccc(F)nc2CO)c1C(=O)Nc1cccc([S@](C)(=N)=O)c1 [Example 89C] | > 200 | 
